In EP0734259B1, “Use of piperidine compounds in the treatment of schizophrenia” (NOVO NORDISK A/S, priority 1993, dated 1995):
Counter-ions that a name gives are not always drawn.

Columns and labels:
muscarinic receptors = experiment: ^3H-oxotremorine-M binding assay (inhibition of binding to cerebral cortical membranes); conditions: 3 nM ^3H-oxotremorine-M, rat cerebral cortical membranes, 15 minutes at 25°C, read-out: Inhibition of ^3H-Oxo
Method: The affinity of the compounds for the muscarinic receptors was determined using the non-selective agonist ligand, ^3H-oxotremorine-M. Birdsdall N.J.M., Hulme E.C., and Burgen A.S.V., "The Character of Muscarinic Receptors in Different Regions of the Rat Brain", 207 Proc. Roy. Soc. 1 (London, Series B, 1980). Each compound was tested to determine the affinity of the compound for the muscarinic receptors using the following procedure.
For each in vitro binding, male Sprague-Dawley (Harlan Sprague-Dawley, Indianapolis, IN) rats weighing from about 100 to about 150 grams each were sacrificed by decapitation. The brains were quickly removed and the cerebral cortex were dissected from the brain. The cerebral cortex tissue was homogenized in 10 volumes of 0.32 M sucrose and […] at about 1000 x g. The supernatant was centrifuged at about 12,000 x g for about 10 minutes and the resulting pellet was resuspended in 20 mM tris-CI, pH 7.4. The resuspended pellet was centrifuged again for about 10 minutes at about 50,000 x g. The resulting homogenate was preincubated for about 10 minutes at about 25°C and centrifuged again for about 10 minutes at about 50,000 x g. The pellet was resuspended at 1 gram of pellet per 3 ml of buffer and frozen at about -80°C until used.
The aforementioned homogenates mixture was incubated for about 15 minutes at about 25°C and then the homogenates were filtered through glass filters (Whatman, GF/C) with vacuum. The filters were washed 3 times with about 2 ml of cold tris-CI buffer, and placed in scintillation vials containing about 10 ml of scintillation fluid (Ready Protein+, Beckman, Fullerton, CA). Radioactivity trapped on the filters was determined by liquid scintillation spectrometry. Nonspecific binding was determined using 1 µM atropine. […] DeLean, A. et al. Am. J. Physiol., 235, (1978).

rats = experiment: Conditioned avoidance behavior in rats; assay type: in vivo, rat; conditions: 3.0 mg/kg s.c. 30 min before the session, active if % avoidance reduced to at least 50%
Description: In a conditioned avoidance test, animals learn to respond during a conditioned stimulus in order to avoid mild shock presentation. A response during the conditioned stimulus is termed an avoidance respone, a response during shock is termed an escape response; a response failure is when the animal fails to respond during either the conditioned stimlus or the shock presentation and is indicative of motor impairment. Animals rapidly learn to avoid 99% of the time. Antipsychotic drugs decrease the percentage of avoidance responses without interfering with the ability of the animal to respond since the animals do emit escape responses. The percentage of response failures is considered a measure of motor impairment.
Rats were required to press a response lever in an experimental chamber in order to avoid or escape foot-shock. Each experimental session consisted of 50 trials. During each trial, the chamber was illuminated and a tone presented for a maximum of 10 sec. A response during the tone immediately terminated the tone and the houselight, ending the trial. In the absence of a response during the tone alone, tone+foot-shock (2.0 mA) was presented for a maximum of 10 sec. A response during shock presentation immediately terminated the shock, the tone and the houselight, ending the trial.
For drug screening, a dose of 3.0 mg/kg was administered s.c. 30 min before the start of the experimental session. A drug was considered active if it reduced the % avoidance responding to at least 50% without producing greater than 50% response failures. For active drugs, a dose-response curve was subsequently determined.

Row | IC50 (muscarinic receptors) [nM] | Compound | Conditioned Avoidance % Avoidance Responses (rats) [%]
1 | 1.2 | CCCSc1nsnc1C1=CCCNC1.O=C(O)C(=O)O [Compound 217, 3-(3-Propylthio-1,2,5-thiadiazol-4-yl)-1,2,5,6-tetrahydropyridine oxalate] | 30
2 | 5.7 | CCOc1nsnc1C1=CCCN(C)C1.O=C(O)C(=O)O [Compound 2, 3-(3-Ethoxy-1,2,5-thiadiazol-4-yl)-1,2,5,6-tetrahydro-1-methylpyridine oxalate] | 70
3 | 5.8 | CCCCCSc1nsnc1C1=CCCNC1.O=C(O)C(=O)O [Compound 219, 3-(3-Pentylthio-1,2,5-thiadiazol-4-yl)-1,2,5,6-tetrahydropyridine oxalate] | 79
4 | 1.7 | CCCCSc1nsnc1C1=CCCN(C)C1.O=C(O)C(=O)O [Compound 48, 3-(3-Butylthio-1,2,5-thiadiazol-4-yl)-1,2,5,6-tetrahydro-1-methylpyridine oxalate] | 57
5 | 1.9 | CCSc1nsnc1C1=CCCN(C)C1.O=C(O)C(=O)O [Compound 65, 3-(3-Ethylthio-1,2,5-thiadiazol-4-yl)-1,2,5,6-tetrahydro-1-methylpyridine oxalate] | 69
6 | 10.5 | CCOc1nsnc1C1=CCCNC1.Cl [Compound 215, 3-(3-Ethoxy-1,2,5-thiadiazol-4-yl)-1,2,5,6-tetrahydropyridine hydrochloride] | 61
7 | 7.4 | Cl.FC(F)(F)COc1nsnc1C1=CCCNC1 [Compound 223, 3-(3-(2,2,2-Trifluoroethoxy)-1,2,5-thiadiazol-4-yl)-1,2,5,6-tetrahydropyridine hydrochloride] | 31
8 | 22 | COc1nsnc1C1=CCCN(C)C1.O=C(O)C(=O)O [Compound 1, 1,2,5,6-Tetrahydro-3-(3-methoxy-1,2,5-thiadiazol-4-yl)-1-methylpyridine oxalate] | 97
9 | 6.5 | CCSc1nsnc1C1=CCCNC1.Cl [Compound 216, 3-(3-Ethylthio-1,2,5-thiadiazol-4-yl)-1,2,5,6-tetrahydropyridine hydrochloride] | 12
10 | 4.8 | CCCCCSc1nsnc1C1=CCCN(C)C1.O=C(O)C(=O)O [Compound 66, 3-(3-Pentylthio-1,2,5-thiadiazol-4-yl)-1,2,5,6-tetrahydro-1-methylpyridine oxalate] | 87
11 | 3.5 | CCCCSc1nsnc1C1=CCCNC1.O=C(O)C(=O)O [Compound 218, 3-(3-Butylthio-1,2,5-thiadiazol-4-yl)-1,2,5,6-tetrahydropyridine oxalate] | 39
12 | 0.42 | Cl.FC(F)(F)CSc1nsnc1C1=CCCNC1 [Compound 222, 3-(3-(2,2,2-Trifluoroethylthio)-1,2,5-thiadiazol-4-yl)-1,2,5,6-tetrahydropyridine hydrochloride] | 0
13 | 2.3 | CSc1nsnc1C1=CCCN(C)C1.O=C(O)C(=O)O [Compound 49, 3-(3-Methylthio-1,2,5-thiadiazol-4-yl)-1,2,5,6-tetrahydro-1-methylpyridine oxalate] | 37
14 | 1.6 | CCCOc1nsnc1C1=CCCN(C)C1.O=C(O)C(=O)O [Compound 3, 1,2,5,6-Tetrahydro-1-methyl-3-(3-propoxy-1,2,5-thiadiazol-4-yl)pyridine oxalate] | 71
15 | 0.9 | CCCSc1nsnc1C1=CCCN(C)C1.O=C(O)C(=O)O [Compound 47, 3-(3-Propylthio-1,2,5-thiadiazol-4-yl)-1,2,5,6-tetrahydro-1-methylpyridine oxalate] | 49

Row | Compound | IC50 (muscarinic receptors) [nM] | Conditioned Avoidance % Avoidance Responses (rats) [%]
16 | CCCCOc1nsnc1C1=CCCN(C)C1.O=C(O)C(=O)O [Compound 4, 3-(3-Butoxy-1,2,5-thiadiazol-4-yl)-1,2,5,6-tetrahydro-1-methylpyridine oxalate] | 2 | 74
17 | CN1CCC=C(c2nsnc2SCCSc2cccs2)C1 [Compound 228, 3-(3-(2-(2-Thienylthio)ethylthio))-1,2,5-thiadiazol-4-yl)-1,2,5,6-tetrahydro-1-methylpyridine oxalate] | 0.6 | 92
18 | CCCCCCSc1nsnc1C1=CCCNC1 [Compound 220, 3-(3-Hexylthio-1,2,5-thiadiazol-4-yl-1,2,5,6-tetrahydropyridine oxalate] | 3 | 88
